Columns and labels:
[1] = test system: Tyrosine-protein kinase ABL1 (Homo sapiens), P00519 [F317L]; test: Selectivity interaction (Ambit KINOMEscan and KiNATiv profiling in Jurkat cells) EUB0000090b ABL1; format: cell-based; settings: at 1 µM
[2] = target: Cyclin-dependent kinase 8 (Homo sapiens, UniProt P49336); test: Selectivity interaction (Ambit KINOMEscan and KiNATiv profiling in Jurkat cells) EUB0000090b CDK8; format: cell-based; settings: at 1 µM
[3] = target: Tyrosine-protein kinase BTK (Homo sapiens, UniProt Q06187); test: Selectivity interaction (SelectScreen profiling (Invitrogen)) EUB0000607a BTK; settings: at 2 µM
[4] = target: Serine/threonine-protein kinase tousled-like 2 (Homo sapiens) (UniProt Q86UE8); test: Selectivity interaction (ActivX KiNativ screen (ex vivo kinase selectivity in human PBMCs)) EUB0001619a TLK2; format: cell-based; settings: PBMC, at 1 µM
[5] = test system: Epidermal growth factor receptor (Homo sapiens), P00533 [L861Q]; settings: at 10 µM
[6] = target: T1, SNF-related serine/threonine-protein kinase (Homo sapiens) (UniProt Q9NRH2); test: Selectivity interaction (ActivX KiNativ screen (kinase selectivity in THP-1 cell lysates)) EUB0000639a SNRK; format: subcellular; settings: lysate, at 5 µM
T1 sequence (whole entry): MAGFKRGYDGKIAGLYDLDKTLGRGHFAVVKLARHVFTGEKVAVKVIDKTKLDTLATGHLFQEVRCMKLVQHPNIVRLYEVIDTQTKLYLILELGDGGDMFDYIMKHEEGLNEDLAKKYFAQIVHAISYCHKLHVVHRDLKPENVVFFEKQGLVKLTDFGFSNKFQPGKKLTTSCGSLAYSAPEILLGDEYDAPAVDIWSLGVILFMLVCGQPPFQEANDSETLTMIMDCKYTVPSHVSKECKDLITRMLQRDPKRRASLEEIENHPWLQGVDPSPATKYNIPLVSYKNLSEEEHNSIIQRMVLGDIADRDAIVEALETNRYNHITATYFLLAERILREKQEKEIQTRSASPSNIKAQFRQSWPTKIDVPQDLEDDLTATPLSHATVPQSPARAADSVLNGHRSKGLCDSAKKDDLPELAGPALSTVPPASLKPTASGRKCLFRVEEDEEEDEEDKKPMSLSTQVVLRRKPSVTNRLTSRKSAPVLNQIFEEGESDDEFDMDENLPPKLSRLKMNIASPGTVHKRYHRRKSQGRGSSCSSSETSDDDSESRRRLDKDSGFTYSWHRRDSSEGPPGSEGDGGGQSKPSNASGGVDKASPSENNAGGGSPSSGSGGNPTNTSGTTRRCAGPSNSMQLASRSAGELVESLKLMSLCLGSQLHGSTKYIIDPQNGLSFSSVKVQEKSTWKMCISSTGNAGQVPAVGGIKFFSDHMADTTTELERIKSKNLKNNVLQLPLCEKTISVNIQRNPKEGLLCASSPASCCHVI

[7] = target: Serine/threonine-protein kinase WNK1 (Homo sapiens) (UniProt Q9H4A3); test: Selectivity interaction (ActivX KiNativ screen (kinase selectivity in THP-1 cell lysates)) EUB0000639a WNK1; format: subcellular; settings: lysate, at 0.2 µM
[8] = target: Tyrosine-protein kinase Blk (Homo sapiens) (UniProt P51451); test: Selectivity interaction (KinomeScan (DiscoverX)) EUB0001049a BLK; settings: at 1 µM
[9] = target: Tyrosine-protein kinase JAK2 (Homo sapiens, UniProt O60674); test: Selectivity interaction (Kinase panel (Carna Biosciences)) EUB0001542aTs JAK2; settings: at 1 µM
[10] = target: T2, Ephrin type-B receptor 2 (Homo sapiens) (UniProt P29323); test: Selectivity interaction (Kinase panel (Z-LYTE Assay)) EUB0001632a EPHB2; settings: at 10 µM
T2 sequence (whole entry): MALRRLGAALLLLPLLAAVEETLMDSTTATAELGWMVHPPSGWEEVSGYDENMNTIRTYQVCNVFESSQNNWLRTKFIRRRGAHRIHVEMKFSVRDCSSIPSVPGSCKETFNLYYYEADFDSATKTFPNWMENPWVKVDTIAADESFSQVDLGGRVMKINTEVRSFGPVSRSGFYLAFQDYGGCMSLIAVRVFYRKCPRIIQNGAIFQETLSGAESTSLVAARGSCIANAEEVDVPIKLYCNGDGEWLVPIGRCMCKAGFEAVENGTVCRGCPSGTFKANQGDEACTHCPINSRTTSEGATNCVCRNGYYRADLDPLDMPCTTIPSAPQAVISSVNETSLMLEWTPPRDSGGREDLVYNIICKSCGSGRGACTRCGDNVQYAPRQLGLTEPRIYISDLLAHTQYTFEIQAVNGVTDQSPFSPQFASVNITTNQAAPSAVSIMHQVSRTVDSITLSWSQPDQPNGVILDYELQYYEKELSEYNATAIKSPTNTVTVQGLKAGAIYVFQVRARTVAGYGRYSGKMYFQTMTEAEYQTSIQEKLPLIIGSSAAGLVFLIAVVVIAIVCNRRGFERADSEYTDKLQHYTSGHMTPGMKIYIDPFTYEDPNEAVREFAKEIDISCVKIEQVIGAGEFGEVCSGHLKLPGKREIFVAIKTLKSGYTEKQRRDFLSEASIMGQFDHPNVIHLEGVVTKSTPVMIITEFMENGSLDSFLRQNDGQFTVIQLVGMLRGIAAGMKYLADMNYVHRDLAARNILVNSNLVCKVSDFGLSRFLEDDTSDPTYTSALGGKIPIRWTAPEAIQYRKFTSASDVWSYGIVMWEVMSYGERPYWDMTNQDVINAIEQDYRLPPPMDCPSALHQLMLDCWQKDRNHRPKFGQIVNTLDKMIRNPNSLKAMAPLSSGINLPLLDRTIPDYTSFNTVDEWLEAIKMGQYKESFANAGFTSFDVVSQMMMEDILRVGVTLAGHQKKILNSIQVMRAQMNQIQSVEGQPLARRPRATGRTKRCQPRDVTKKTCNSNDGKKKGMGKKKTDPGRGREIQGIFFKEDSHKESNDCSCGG

[11] = target: Cyclin-dependent kinase 2/cyclin E (Homo sapiens, UniProt P24941); test: (§1) Selectivity interaction (Enzymatic assay (Reaction Biology)) EUB0001632a CDK2; format: protein-complex assay
CDK2/Cyclin A2 = CDK2/Cyclin A2 (Homo sapiens, UniProt P24941); test: as §1; format: protein-complex assay

Sequence of Serine/threonine-protein kinase WNK1 (Homo sapiens) (Q9H4A3 whole entry, looked up): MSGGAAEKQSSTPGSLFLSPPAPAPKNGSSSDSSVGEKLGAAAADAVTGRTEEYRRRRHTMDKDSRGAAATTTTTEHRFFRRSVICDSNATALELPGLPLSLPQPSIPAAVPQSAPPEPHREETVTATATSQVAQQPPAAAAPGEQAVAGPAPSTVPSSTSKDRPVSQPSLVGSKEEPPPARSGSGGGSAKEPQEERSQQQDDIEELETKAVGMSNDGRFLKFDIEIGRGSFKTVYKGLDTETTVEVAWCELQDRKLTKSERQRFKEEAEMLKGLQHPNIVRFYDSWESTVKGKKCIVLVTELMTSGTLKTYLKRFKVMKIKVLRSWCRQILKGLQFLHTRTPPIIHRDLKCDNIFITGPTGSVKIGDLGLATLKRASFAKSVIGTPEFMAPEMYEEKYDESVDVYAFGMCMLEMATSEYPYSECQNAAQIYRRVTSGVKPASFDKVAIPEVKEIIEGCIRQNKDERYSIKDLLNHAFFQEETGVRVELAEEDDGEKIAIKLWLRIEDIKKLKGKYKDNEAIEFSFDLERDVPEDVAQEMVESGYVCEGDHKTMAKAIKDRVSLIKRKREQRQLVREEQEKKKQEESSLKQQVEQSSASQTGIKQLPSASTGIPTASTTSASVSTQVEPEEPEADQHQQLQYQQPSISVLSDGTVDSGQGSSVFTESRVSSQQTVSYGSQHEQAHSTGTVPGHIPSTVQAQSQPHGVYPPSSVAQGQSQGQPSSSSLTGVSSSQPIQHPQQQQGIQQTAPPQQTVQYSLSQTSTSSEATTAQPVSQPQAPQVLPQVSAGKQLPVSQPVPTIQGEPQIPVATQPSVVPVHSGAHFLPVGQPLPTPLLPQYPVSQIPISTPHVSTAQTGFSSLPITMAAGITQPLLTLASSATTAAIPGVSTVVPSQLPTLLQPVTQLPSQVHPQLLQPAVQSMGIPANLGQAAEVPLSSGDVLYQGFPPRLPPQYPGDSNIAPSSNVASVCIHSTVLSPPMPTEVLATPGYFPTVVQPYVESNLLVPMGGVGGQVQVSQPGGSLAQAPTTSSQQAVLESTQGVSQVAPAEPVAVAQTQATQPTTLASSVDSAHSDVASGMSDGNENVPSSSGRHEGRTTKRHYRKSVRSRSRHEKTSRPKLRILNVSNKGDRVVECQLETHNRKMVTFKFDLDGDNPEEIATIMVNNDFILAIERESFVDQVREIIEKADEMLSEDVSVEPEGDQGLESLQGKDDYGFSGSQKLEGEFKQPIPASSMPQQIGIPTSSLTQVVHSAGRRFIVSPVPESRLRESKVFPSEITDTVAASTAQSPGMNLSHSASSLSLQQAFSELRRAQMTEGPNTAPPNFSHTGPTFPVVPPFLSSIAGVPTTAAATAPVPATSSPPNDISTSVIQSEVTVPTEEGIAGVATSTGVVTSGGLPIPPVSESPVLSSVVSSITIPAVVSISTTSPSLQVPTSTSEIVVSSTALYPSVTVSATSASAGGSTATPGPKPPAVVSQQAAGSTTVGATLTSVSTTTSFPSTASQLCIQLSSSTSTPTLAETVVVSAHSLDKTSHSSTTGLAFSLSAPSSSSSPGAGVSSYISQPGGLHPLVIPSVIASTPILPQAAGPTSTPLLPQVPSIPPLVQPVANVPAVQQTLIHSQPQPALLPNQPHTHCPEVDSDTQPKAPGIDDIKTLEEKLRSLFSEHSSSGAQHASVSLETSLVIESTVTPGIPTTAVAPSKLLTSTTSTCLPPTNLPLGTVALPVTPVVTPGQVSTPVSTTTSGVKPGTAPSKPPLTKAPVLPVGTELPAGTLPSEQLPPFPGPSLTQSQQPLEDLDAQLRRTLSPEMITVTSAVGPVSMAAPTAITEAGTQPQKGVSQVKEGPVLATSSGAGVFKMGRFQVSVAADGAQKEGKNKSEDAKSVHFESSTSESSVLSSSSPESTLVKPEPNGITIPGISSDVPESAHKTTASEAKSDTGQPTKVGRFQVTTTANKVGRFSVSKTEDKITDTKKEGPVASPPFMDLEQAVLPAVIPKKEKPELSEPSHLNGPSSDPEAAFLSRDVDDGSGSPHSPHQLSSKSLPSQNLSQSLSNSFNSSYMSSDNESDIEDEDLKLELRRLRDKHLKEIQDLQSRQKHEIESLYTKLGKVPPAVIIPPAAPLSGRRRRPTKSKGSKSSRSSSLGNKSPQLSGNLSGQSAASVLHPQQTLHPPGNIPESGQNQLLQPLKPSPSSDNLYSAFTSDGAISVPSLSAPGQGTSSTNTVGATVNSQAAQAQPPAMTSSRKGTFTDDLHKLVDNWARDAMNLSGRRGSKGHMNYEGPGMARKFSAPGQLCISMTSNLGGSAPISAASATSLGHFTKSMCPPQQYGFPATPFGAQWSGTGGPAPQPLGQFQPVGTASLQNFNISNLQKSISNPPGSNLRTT
Sequence of Tyrosine-protein kinase BTK (Q06187 whole entry): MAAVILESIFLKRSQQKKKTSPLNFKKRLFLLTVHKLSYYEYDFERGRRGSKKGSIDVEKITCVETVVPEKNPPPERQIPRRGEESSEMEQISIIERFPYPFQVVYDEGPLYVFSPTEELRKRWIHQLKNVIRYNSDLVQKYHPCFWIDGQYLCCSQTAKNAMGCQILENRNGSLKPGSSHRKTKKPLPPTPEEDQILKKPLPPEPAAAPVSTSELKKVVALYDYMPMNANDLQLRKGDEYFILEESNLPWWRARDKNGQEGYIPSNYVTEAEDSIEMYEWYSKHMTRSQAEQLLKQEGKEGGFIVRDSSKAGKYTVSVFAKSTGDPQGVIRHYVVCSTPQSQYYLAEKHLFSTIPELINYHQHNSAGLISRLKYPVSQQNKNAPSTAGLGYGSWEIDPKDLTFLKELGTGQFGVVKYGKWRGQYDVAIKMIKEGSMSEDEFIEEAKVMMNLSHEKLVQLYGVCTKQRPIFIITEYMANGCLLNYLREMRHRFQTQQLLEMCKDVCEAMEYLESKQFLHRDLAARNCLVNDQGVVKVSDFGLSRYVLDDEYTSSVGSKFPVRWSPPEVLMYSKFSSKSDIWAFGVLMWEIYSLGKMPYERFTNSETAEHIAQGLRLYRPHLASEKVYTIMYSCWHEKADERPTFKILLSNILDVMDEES
Sequence of Tyrosine-protein kinase ABL1 (Homo sapiens), P00519 [F317L] (P00519 whole entry F317L): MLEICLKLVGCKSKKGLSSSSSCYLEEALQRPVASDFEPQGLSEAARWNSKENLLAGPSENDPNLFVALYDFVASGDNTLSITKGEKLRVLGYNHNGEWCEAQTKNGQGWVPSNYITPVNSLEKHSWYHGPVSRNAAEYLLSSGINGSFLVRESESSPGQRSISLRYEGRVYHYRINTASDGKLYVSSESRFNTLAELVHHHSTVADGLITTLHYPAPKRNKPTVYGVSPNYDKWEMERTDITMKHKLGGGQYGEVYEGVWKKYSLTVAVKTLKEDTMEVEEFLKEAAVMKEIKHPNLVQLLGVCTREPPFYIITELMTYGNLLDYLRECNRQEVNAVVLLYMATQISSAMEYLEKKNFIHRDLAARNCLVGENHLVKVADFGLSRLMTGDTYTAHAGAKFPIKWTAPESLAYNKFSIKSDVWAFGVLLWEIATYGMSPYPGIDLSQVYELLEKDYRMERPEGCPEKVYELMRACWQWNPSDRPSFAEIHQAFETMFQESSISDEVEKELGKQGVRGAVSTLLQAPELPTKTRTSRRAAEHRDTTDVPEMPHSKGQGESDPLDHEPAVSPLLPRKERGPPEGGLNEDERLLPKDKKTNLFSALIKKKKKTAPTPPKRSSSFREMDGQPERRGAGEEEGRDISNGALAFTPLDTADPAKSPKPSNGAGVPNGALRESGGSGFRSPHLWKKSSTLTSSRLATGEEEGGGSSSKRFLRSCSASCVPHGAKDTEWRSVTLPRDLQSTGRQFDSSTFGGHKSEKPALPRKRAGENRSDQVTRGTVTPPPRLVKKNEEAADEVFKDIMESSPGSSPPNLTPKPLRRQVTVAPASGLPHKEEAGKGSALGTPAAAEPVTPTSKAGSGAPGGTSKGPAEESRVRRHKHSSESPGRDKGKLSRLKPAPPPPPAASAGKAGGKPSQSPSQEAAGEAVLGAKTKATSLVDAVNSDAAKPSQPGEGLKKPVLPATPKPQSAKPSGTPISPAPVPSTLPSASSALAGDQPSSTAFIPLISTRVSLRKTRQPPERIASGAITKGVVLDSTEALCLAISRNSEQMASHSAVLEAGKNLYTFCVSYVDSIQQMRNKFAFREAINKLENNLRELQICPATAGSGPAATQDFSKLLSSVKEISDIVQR
Sequence of Serine/threonine-protein kinase tousled-like 2 (Homo sapiens) (Q86UE8 whole entry, looked up): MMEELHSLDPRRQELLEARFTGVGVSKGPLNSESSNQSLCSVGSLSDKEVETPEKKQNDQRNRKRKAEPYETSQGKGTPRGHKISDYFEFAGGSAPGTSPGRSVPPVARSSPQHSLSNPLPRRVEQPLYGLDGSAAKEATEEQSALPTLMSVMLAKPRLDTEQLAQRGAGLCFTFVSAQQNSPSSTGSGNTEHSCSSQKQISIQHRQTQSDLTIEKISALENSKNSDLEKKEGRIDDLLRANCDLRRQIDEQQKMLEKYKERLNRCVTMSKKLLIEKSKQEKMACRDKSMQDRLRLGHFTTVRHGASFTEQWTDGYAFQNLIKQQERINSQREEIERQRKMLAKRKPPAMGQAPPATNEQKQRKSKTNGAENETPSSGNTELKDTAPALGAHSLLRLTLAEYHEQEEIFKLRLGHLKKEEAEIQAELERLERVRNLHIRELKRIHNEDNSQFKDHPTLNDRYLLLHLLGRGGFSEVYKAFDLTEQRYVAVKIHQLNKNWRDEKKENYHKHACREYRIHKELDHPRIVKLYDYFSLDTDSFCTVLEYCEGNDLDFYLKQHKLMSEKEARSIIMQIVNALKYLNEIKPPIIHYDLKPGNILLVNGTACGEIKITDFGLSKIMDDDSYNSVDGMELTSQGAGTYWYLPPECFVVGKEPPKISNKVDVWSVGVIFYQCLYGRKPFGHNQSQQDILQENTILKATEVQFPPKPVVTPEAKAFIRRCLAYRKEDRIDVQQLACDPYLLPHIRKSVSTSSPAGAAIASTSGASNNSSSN

SMILES: CN(C)C/C=C/C(=O)Nc1ccc(C(=O)N2CCCC(Nc3ncc(Cl)c(-c4c[nH]c5ccccc45)n3)C2)cc1 (configuration not stated)
- % of control [1]: 100%
- % of control [2]: 100%

SMILES: CNC(=O)Nc1ccc(-c2nc(N3CC4CCC(C3)O4)c3cnn(C4CCC5(CC4)OCCO5)c3n2)cc1
- % of inhibition [3]: 3%

SMILES: N#Cc1cccc(-c2c[nH]c3ncnc(N4CCOCC4)c23)c1
- % of inhibition [4]: -21%

SMILES: Cc1cc([C@@H](C)Nc2ccccc2C(=O)O)c2nc(N3CCOCC3)cc(=O)n2c1 [AZD-6482]
- % of control [5]: 100%

SMILES: CC[C@@H]1[C@H](F)C(=O)N[C@@H]1COc1nccc2cc(C(N)=O)c(OC)cc12 [ZIMLOVISERTIB]
- % of inhibition [6]: 16.9%
- % of inhibition [7]: -12%

SMILES: COc1cc(Nc2nc(C)cc(-c3cnn4nc(OC)ccc34)n2)cc(C(F)(F)F)c1
- % of control [8]: 100%

SMILES: Cn1cc(Nc2nccc(N3CC4CCC(C3)N4C(=O)[C@@H]3CC3(F)F)n2)cn1
- % of inhibition [9]: 101%

SMILES: Cn1cc(-n2cnc3c(NCc4nc5cc(Cl)c(Cl)cc5[nH]4)nc(N4CCOCC4)nc32)cn1
- % of control [10]: 1.86%
- IC50 [11]: > 10 µM
- IC50 (CDK2/Cyclin A2): > 10 µM

From ChEMBL document CHEMBL5465560, “Selectivity Literature for EUbOPEN Chemogenomic Library” (2024)
